Patent publication US10035800B2 (AbbVie Inc., priority 2013, dated 2018)

Columns and labels:
[1] = test system: breast cancer cell line MX-1; assay: MX-1 cell line proliferation assay; assay type: cell-based; conditions: MX-1 cells, 3-day proliferation assay, Cell Titer Glo; read-out: Cellular proliferation: EC50
Method in brief: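 MX-1 cells at 5000/well, in RPMI 1640 with 10% FBS, were exposed to compounds for 3 days. Final concentrations ranged 3 μM–0.1 nM or 1 μM–0.03 nM, in 3-fold steps. Cell Titer Glo luminescence was normalized to DMSO and fitted sigmoidally for EC50; overall MSR 2.1.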

BRD4 (BDII_E352-M457) = biological target: T1, BRD4 (BDII_E352-M457) (Homo sapiens, UniProt O60885); assay: TR-FRET bromodomain binding assay, second bromodomain of BRD4; conditions: 30 nM probe
T1 construct: protocol; made in house
Method in brief: (§1)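 TR-FRET displacement of an Alexa647-labelled BET-inhibitor probe from His-tagged BRD4 BD1 or BD2 (8 nM), read via 1 nM Eu-anti-His antibody after 1 h at room temperature. Buffer was 20 mM sodium phosphate pH 6.0 with 2% DMSO. Probe was 100 nM for BDI and 30 nM for BDII. IC50 came from 4-parameter fits, and Ki from IC50, probe Kd and probe concentration.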

BRD4 (BDI_K57-E168) = biological target: T2, BRD4 (BDI_K57-E168) (Homo sapiens, UniProt O60885); assay: TR-FRET bromodomain binding assay, first bromodomain of BRD4; conditions: 100 nM probe
T2 construct: BD1: amino acids K57-E168; made in house
Method in brief: as §1

[2] = TR-FRET assay protocol G (compound 0.92 μM-15 pM)
[3] = TR-FRET assay protocol E (compound 9.19 μM-150 pM)

Molecule	EC50 [1] [µM]	Ki (BRD4 (BDII_E352-M457); [2]) [µM]	Ki (BRD4 (BDI_K57-E168); [2]) [µM]	Ki (BRD4 (BDII_E352-M457); [3]) [µM]	Ki (BRD4 (BDI_K57-E168); [3]) [µM]
CNC(=O)CCC1c2c[nH]c3c(=O)n(C)cc(c23)-c2cc(CS(C)(=O)=O)ccc2N1c1ccc(F)cc1F (stereo not drawn) [Example 118, 3-(4-(2,4-difluorophenyl)-10-methyl-7-((methylsulfonyl)methyl)-11-oxo-3,4,10,11-tetrahydro-1H-1,4,10-triazadibenzo[cd,f]azulen-3-yl)-N-methylpropanamide]	0.174	0.00138	0.0126		
Cn1cc2c3c(c[nH]c3c1=O)C(CCC(=O)NCc1ccccc1)N(c1ccc(F)cc1F)c1ccc(CS(C)(=O)=O)cc1-2 (stereo not drawn) [Example 123, N-benzyl-3-(4-(2,4-difluorophenyl)-10-methyl-7-((methylsulfonyl)methyl)-11-oxo-3,4,10,11-tetrahydro-1H-1,4,10-triazadibenzo[cd,f]azulen-3-yl)propanamide]	> 1	0.000983	0.00995		
Cn1cc2c3c(c[nH]c3c1=O)C(CO)N(c1ccc(F)cc1F)c1ccc(CS(C)(=O)=O)cc1-2 (stereo not drawn) [Example 200, 4-(2,4-difluorophenyl)-3-(hydroxymethyl)-10-methyl-7-((methylsulfonyl)methyl)-3,4-dihydro-1H-1,4,10-triazadibenzo[cd,f]azulen-11(10H)-one]	0.0342	0.00205	0.00818		
Cn1cc2c3c(c[nH]c3c1=O)C(c1ccccc1-c1ccccc1)N(c1ccc(F)cc1F)c1ccc(CS(C)(=O)=O)cc1-2 (stereo not drawn) [Example 230]	0.528	0.0581	> 0.238		
4-(2-(3-(dimethylamino)propoxy)benzyl)-10-methyl-7-((methylsulfonyl)methyl)-3,4-dihydro-1H-1,4,10-triazadibenzo[cd,f]azulen-11(10H)-one [Example 260]	0.219	0.0034	0.00726		
Cn1cc2c3c(c[nH]c3c1=O)CN(c1ccc(F)cc1F)c1c(C(N)=O)cc(CS(C)(=O)=O)cc1-2 [Example 240, 4-(2,4-difluorophenyl)-10-methyl-7-((methylsulfonyl)methyl)-11-oxo-3,4,10,11-tetrahydro-1H-1,4,10-triazadibenzo[cd,f]azulene-5-carboxamide]	0.0859	0.00193	0.00314		
CCS(=O)(=O)c1ccc2c(c1)-c1cn(C)c(=O)c3[nH]cc(c13)CN2CC1CC1 [Example 2, 4-(cyclopropylmethyl)-7-(ethylsulfonyl)-10-methyl-3,4-dihydro-1H-1,4,10-triazadibenzo[cd,f]azulen-11(10H)-one]	0.0192			0.00836	0.0246
CC(=O)OCCCCCCC1c2c[nH]c3c(=O)n(C)cc(c23)-c2cc(CS(C)(=O)=O)ccc2N1c1ccc(F)cc1F (stereo not drawn) [Example 128, 6-(4-(2,4-difluorophenyl)-10-methyl-7-((methylsulfonyl)methyl)-11-oxo-3,4,10,11-tetrahydro-1H-1,4,10-triazadibenzo[cd,f]azulen-3-yl)hexyl acetate]	0.0729	0.002	0.0291		
CN(NC(=O)CCC1c2c[nH]c3c(=O)n(C)cc(c23)-c2cc(CS(C)(=O)=O)ccc2N1c1ccc(F)cc1F)c1ccccc1 (stereo not drawn) [Example 122, 3-(4-(2,4-difluorophenyl)-10-methyl-7-((methylsulfonyl)methyl)-11-oxo-3,4,10,11-tetrahydro-1H-1,4,10-triazadibenzo[cd,f]azulen-3-yl)-N′-methyl-N′-phenylpropanehydrazide]	> 1	0.000922	0.0108		
Cn1cc2c3c(c[nH]c3c1=O)C(c1ccc(C#N)cc1)N(c1ccc(F)cc1F)c1ccc(CS(C)(=O)=O)cc1-2 (racemic) [Example 235, 4-(4-(2,4-difluorophenyl)-10-methyl-7-((methylsulfonyl)methyl)-11-oxo-3,4,10,11-tetrahydro-1H-1,4,10-triazadibenzo[cd,f]azulen-3-yl)benzonitrile]	0.162	0.00651	0.0161		
Cn1cc2c3c(c[nH]c3c1=O)[C@@H](c1ccccc1)N(c1ccc(F)cc1F)c1ccc(CS(C)(=O)=O)cc1-2 (single isomer, unassigned) [Example 215]	0.454	0.00587	0.0657		
CCOC(=O)C1c2c[nH]c3c(=O)n(C)cc(c23)-c2cc(CS(C)(=O)=O)ccc2N1c1ccc(F)cc1 [Example 84, (R)-ethyl 4-(4-fluorophenyl)-10-methyl-7-((methylsulfonyl)methyl)-11-oxo-3,4,10,11-tetrahydro-1H-1,4,10-triazadibenzo[cd,f]azulene-3-carboxylate]	0.0177	0.00386	0.00224		
CC(C)CC(=O)N1Cc2c[nH]c3c(=O)n(C)cc(c23)-c2cc(CS(C)(=O)=O)ccc21 [Example 106, 10-methyl-4-(3-methylbutanoyl)-7-((methylsulfonyl)methyl)-3,4-dihydro-1H-1,4,10-triazadibenzo[cd,f]azulen-11(10H)-one]	0.0192	0.00191	0.00589		
Cn1cc2c3c(c(CN4CCOCC4)[nH]c3c1=O)CN(c1ccc(Cl)cc1)c1ccc(CS(C)(=O)=O)cc1-2 [Example 193, 4-(4-chlorophenyl)-10-methyl-7-((methylsulfonyl)methyl)-2-(morpholinomethyl)-3,4-dihydro-1H-1,4,10-triazadibenzo[cd,f]azulen-11(10H)-one]	0.0317	0.0124	0.00185		
Cn1cc2c3c(c[nH]c3c1=O)CN(c1ncc(F)cn1)c1ccc(CS(C)(=O)=O)cc1-2 [Example 258, 4-(5-fluoropyrimidin-2-yl)-10-methyl-7-((methylsulfonyl)methyl)-3,4-dihydro-1H-1,4,10-triazadibenzo[cd,f]azulen-11(10H)-one]	0.00443	0.00239	0.00092		
Cn1ccc(CN2Cc3c[nH]c4c(=O)n(C)cc(c34)-c3cc(CS(C)(=O)=O)ccc32)n1 [Example 255, 10-methyl-4-((1-methyl-1H-pyrazol-3-yl)methyl)-7-((methylsulfonyl)methyl)-3,4-dihydro-1H-1,4,10-triazadibenzo[cd,f]azulen-11(10H)-one]	0.0343	0.00733	0.00453		
tert-butyl 4-(4-(4-fluorophenyl)-10-methyl-7-((methylsulfonyl)methyl)-11-oxo-3,4,10,11-tetrahydro-1H-1,4,10-triazadibenzo[cd,f]azulene-3-carbonyl)piperazine-1-carboxylate [Example 35]	0.331	0.0951	0.0355		
Cn1cc2c3c(c(C(N)=O)[nH]c3c1=O)CN(c1ccc(F)cc1F)c1ccc(CS(C)(=O)=O)cc1-2 [Example 209, 4-(2,4-difluorophenyl)-10-methyl-7-((methylsulfonyl)methyl)-11-oxo-3,4,10,11-tetrahydro-1H-1,4,10-triazadibenzo[cd,f]azulene-2-carboxamide]	0.00654	0.00086	0.0012		
Cn1cc2c3c(c[nH]c3c1=O)C(Cc1ccccc1)Nc1ccc(CS(C)(=O)=O)cc1-2 (stereo not drawn) [Example 16, 3-benzyl-10-methyl-7-((methylsulfonyl)methyl)-3,4-dihydro-1H-1,4,10-triazadibenzo[cd,f]azulen-11(10H)-one]	0.337			0.0189	0.0926
4-(cyclopropylmethyl)-7-(isopropylsulfonyl)-10-methyl-3,4-dihydro-1H-1,4,10-triazadibenzo[cd,f]azulen-11(10H)-one [Example 1]	0.0272			0.0105	0.0327
Cn1cc2c3c(c[nH]c3c1=O)C(CN1Cc3ccccc3C1=O)N(c1ccc(F)cc1F)c1ccc(CS(C)(=O)=O)cc1-2 (stereo not drawn) [Example 220, 4-(2,4-difluorophenyl)-10-methyl-7-((methylsulfonyl)methyl)-3-((1-oxoisoindolin-2-yl)methyl)-3,4-dihydro-1H-1,4,10-triazadibenzo[cd,f]azulen-11(10H)-one]	0.285	0.00261	0.0516		
Cn1cc2c3c(c(C(=O)O)[nH]c3c1=O)CN(c1ccc(F)cc1F)c1ccc(CS(C)(=O)=O)cc1-2 [Example 263, 4-(2,4-difluorophenyl)-10-methyl-7-((methylsulfonyl)methyl)-11-oxo-3,4,10,11-tetrahydro-1H-1,4,10-triazadibenzo[cd,f]azulene-2-carboxylic acid]	> 1	0.00807	0.00704		
Cn1cc2c3c(c[nH]c3c1=O)CN(C(C#N)c1ccccc1)c1ccc(CS(C)(=O)=O)cc1-2 (stereo not drawn) [Example 261]	> 1	0.00778	0.00932		
Cn1cc2c3c(c[nH]c3c1=O)C(c1ccccc1)N(c1ccc(F)cc1F)c1ccc(CS(C)(=O)=O)cc1-2 (stereo not drawn) [Example 214, 4-(2,4-difluorophenyl)-10-methyl-7-((methylsulfonyl)methyl)-3-phenyl-3,4-dihydro-1H-1,4,10-triazadibenzo[cd,f]azulen-11(10H)-one]	0.431	0.00325	0.0408		
CCOC(=O)N1Cc2c[nH]c3c(=O)n(C)cc(c23)-c2cc(CS(C)(=O)=O)ccc21 [Example 87, ethyl 10-methyl-7-((methylsulfonyl)methyl)-11-oxo-10,11-dihydro-1H-1,4,10-triazadibenzo[cd,f]azulene-4(3H)-carboxylate]	0.00469	0.0021	0.00254		
